Source: patent US20170246144A1, “METHOD OF PREVENTING OR TREATING SPINOCEREBELLAR ATAXIA BY ADMINISTRATING SILIBININ” (National Taiwan Normal University, priority 2016, published 2017)

Assays:
SCA17 transgenic mice [1] = assay: Footprint pattern analysis in SCA17 transgenic mice; type: in vivo; conditions: 4.5 mg/kg i.p. once every 2 days
Experimental: (§1) FIGS. 10A-10F show the effects of SB on the body weight and motor performance in SCA17 transgenic mice. Mice were grouped into wild type-saline (WT-saline), transgenic-saline (TG-saline), and transgenic-SB treatment (TG-SB) groups. Mice were injected intraperitoneally with saline or SB (4.5 mg/kg) at 8-week old once every 2 days. […] FIG. 10E and FIG. 10F show respectively the stride length of front-limb/hind-limb at the right-side and the left-side. The values represent means±SD, n=6. *p<0.05, comparing to the TG-saline group.
(§2) Since the SCA17 mice were 8 weeks old, the mice were injected intraperitoneally with silibinin in saline at 4.5 mg/kg once every 2 days, designated as TG_SB group. The mice in TG_saline group were injected with same amount of saline.
In addition, footprint pattern analysis was conducted to observe any abnormity of the gait of the mice. Such test was conducted widely to determine motor skill, coordination and balance. The hindfeet and forefeet of the mouse were coated with red and blue nontoxic paint respectively, and the mouse was allowed to walk along a runway on a fresh sheet of white paper. The distance between the centers of the hind footprint and the fore footprint, the length of the step, and the parallel distance were measured for a continuous 6 steps, excluding the steps in the beginning and at the end. The test was performed once every half month.

SH-SY5Y cells [2] = assay: Annexin V-FITC/PI flow cytometry, apoptosis induced by MSG; type: cell-based, Human; conditions: 15 μM, 100 mM MSG, 24 hours
Experimental: 1×10^6 SH-SY5Y cells were treated with 100 mM MSG and 15 μM SB or 10 μM MK801 (MK) for 24 hours. Cells were stained with Annexin-V/PI and the apoptosis was measured with a flow cytometry.
In order to detect the effects of silibinin in inhibiting the apoptosis induced by glutamate in SH-SY5Y cells. The cells were measured by flow cytometry using Annexin V-FITC/propidium iodide (PI) double-labeling method.
SH-SY5Y cells were seeded in dish and were treated with 100 mM MSG in combination of 15 μM silibinin or 10 μM MK801 for 24 hours. The cells were then trypsinized and collected by centrifugation at 2,000 rpm for […] followed by double-staining with Annexin V-FITC and PI. Stained cells were analyzed with a flow cytometry (FACS Sorter, Becton, Dickinson and Company). 10,000 cells were recorded in each experiment.

SCA17 transgenic mice [3] = assay: Rotarod test in SCA17 transgenic mice; type: in vivo; conditions: 4.5 mg/kg i.p. once every 2 days from 8 weeks old
Experimental: as §1, §2
At the 10th week, the rotarod test was performed to measure the motor coordination of the mice. The mice were trained prior to drug treatment. The mouse was placed on the rotarod with acceleration from 2 to 20 rpm for 5 minutes maintaining at 20 rpm for 5 more minutes to establish the baseline of the behavior of the mouse.
The condition was maintained at a linear acceleration from 4 to 30 rpm within 5 minutes during the testing period. The rotarod test was performed once every 2 weeks, since the mouse was 10 weeks old till 20 weeks old. […] The latency of fall was recorded. […]

SH-SY5Y cells [4] = assay: MTT cytotoxicity of silibinin toward SH-SY5Y cells; type: cell-based; conditions: Homo sapiens, 24 hours, read-out: cyto-toxicity toward SH-SY5Y cells, IC50
Excerpt: FIGS. 1A and 1B show the effects of silibinin (SB) in reducing the death of SH-SY5Y cell induced by mono-sodium glutamate (MSG). […] Data were the mean values of three independent experiments. Ctrl: control group.
In order to monitor the cyto-toxicity of silibinin and its ability in resisting glutamatergic excitotoxicity, MTT colorimetric assay was used to measure the cell viability rate of neuroblastoma SH-SY5Y cells which were pre-treated with silibinin and mono-sodium glutamate (MSG).
After the treatment, 0.5 mg/mL MTT was added to the culture media, and the cells were incubated for 3 hours at 37° C. 100 μL lysis solution (10% sodium dodecyl sulfate (SDS) and 0.01N HCl) was added and the absorbance of the media was read at OD570. The percentage of cell viability was calculated as follows:
Cell viability (%)=(OD570 of experimental well/OD570 of control well)×100%

[5] = Body weight of SCA17 transgenic mice; type: in vivo; conditions: 4.5 mg/kg i.p. once every 2 days, 10 to 20 weeks old
Experimental: as §1
In order to understand the efficacy of silibinin in treating SCA17 in vivo, SCA17 transgenic mice (referring as SCA17 mice hereinafter) were used, which were kindly provided by Dr. Hsiu-Mei Hsieh in NTNU.
The mice were housed individually in ventilated cages with a 12-hour light/dark cycle. All mice were maintained in the animal facility in NTNU under specific pathogen-free conditions in accordance with institutional guidelines of the Animal Care and Use Committee at NTNU. The experimental animals were used for motor behavioral assessments, footprint test and the protein aggregation analysis in cerebellum.
as §2

SCA17 transgenic mice [6] = assay: Western blotting of TBP/polyQ aggregation and cleaved caspase 3 in cerebellum of SCA17 mice; type: in vivo; conditions: 4.5 mg/kg i.p. once every 2 days, 20 weeks old
Experimental: FIGS. 11A and 11B show the effects of SB on the levels of TBP (N12) and cleaved caspase-3 in SCA17 transgenic mice. Mice were grouped into wild type-saline (WT-saline), transgenic-saline (TG-saline), and transgenic-SB treatment (TG-SB) groups. Mice were injected intraperitoneally with saline or SB (4.5 mg/kg) at 8-week old once every 2 days. FIG. 11A: The extent of TBP aggregation (detected with TBP (N12) antibody) and the levels of cleaved caspase-3 in the cerebella of mice were measured by western blotting at 20-week old. Actin was used as a loading control. […] The results were shown as mean±SEM, n=6, *p<0.05, comparing to the TG-saline group.
as §2
In order to understand whether silibinin can reduce TBP/polyQ protein aggregation and the expression of cleaved-caspase 3 in the cerebellum of SCA17 mouse, TBP/polyQ protein aggregation and the expression of cleaved-caspase 3 in the cerebellum of SCA17 mouse were measured. […]

COc1cc(C2Oc3cc([C@H]4Oc5cc(O)cc(O)c5C(=O)[C@@H]4O)ccc3OC2CO)ccc1O (some centres unmarked) [silibinin]
overlapped length of footprints, left-paw (SCA17 transgenic mice [1]): 0.8±0.1 cm
overlapped length of footprints, right-paw (SCA17 transgenic mice [1]): 1.1±0.1 cm
apoptosis (apoptotic cells) (SH-SY5Y cells [2]): 9.04%
average time of the latency of fall, rotarod (SCA17 transgenic mice [3]): 393 ± 36 s
IC50 (SH-SY5Y cells [4]): 30 µM
body weight compared to WT_saline group [5]: no significant differences
inhibition of TBP/polyQ protein aggregation in cerebellum (SCA17 transgenic mice [6]): 100%
inhibition of cleaved caspase 3 protein level in cerebellum (SCA17 transgenic mice [6]): 25%
